# Results reported in patent publication US12703731B2, “Long-acting GLP-1 compound” (Gan & Lee Pharmaceuticals Co., Ltd., priority 2019, dated 2026).
# Experiments:
# db/db mice [1] = assay: Single-dose study of blood glucose, food and water intake on db/db mice (Example 15); format: in vivo; details: single s.c. 100 μg/kg
# Protocol: Male db/db (BKS/Lepr) mice aged 8-9 weeks were housed in appropriately sized feeding cages in a barrier environment and had free access to standard food and purified water, with environmental conditions controlled at 40%-60% RH and 22-24° C. After an adaptation period of 1-2 weeks, the mice were used in the experiment.
# Before the start of the experiment on the day, the mice were evaluated for baseline blood glucose at about 9:00 a.m. and weighed.
# The GLP-1 derivatives were dissolved in the vehicle to an administration concentration of 20 μg/mL, and the administration was performed once by subcutaneous injection (s.c., 50 μL/10 g body weight) at back of the neck. The compound of Example 2 was administered at about 10:00 a.m. (time 0), and the blood glucose of the mice was evaluated 1 h, 2 h, 3 h, 6 h, 12 h, 24 h, 48 h and 72 h after the administration. The tail of each mouse was cleaned with an alcohol cotton ball, and blood drops were collected from the tail using a disposable blood collection needle and measured with a glucometer (Roche) and accompanying testing strips. Meanwhile, the food intake and water intake of the mice were monitored every day.
# The dose-response curve of blood glucose versus time, the dose-response curve of food intake versus time, and the dose-response curve of water intake versus time were plotted for each single dose of GLP-1 derivative. […]
# db/db mice [2] = assay: Single-dose pharmacodynamic study on db/db mice (Example 5); format: in vivo; details: single s.c. 100 μg/kg
# Protocol: The title compounds of Examples 1-4 and Comparative Examples 1-4 (also known as GLP-1 derivatives) were tested in a single dose study on an obese mouse model (db/db mice) with type 2 diabetes (T2DM). The hypoglycemic drug effect of the GLP-1 derivatives was tested at a dose of 100 μg/kg.
# Male db/db (BKS/Lepr) mice aged 8-9 weeks were housed in appropriately sized feeding cages in a barrier environment and had free access to standard food and purified water, with environmental conditions controlled at 40%-60% relative humidity (RH) and 22-24° C. After an adaptation period of 1-2 weeks, the mice were used in the experiment.
# Before the start of the experiment on the day, the mice were evaluated for baseline blood glucose at about 9:30 a.m. and weighed. […]
# The GLP-1 derivatives were dissolved in the vehicle to an administration concentration of 20 μg/mL, and the administration volume was 5 mL/kg (i.e., 50 μL/10 g body weight). […] The tail of each mouse was cleaned with an alcohol cotton ball, and blood drops were collected from the tail using a disposable blood collection needle and measured with a glucometer and accompanying testing strips (Roche). Food intake and body weight of each mouse were measured at 24 h, 48 h and 72 h after the administration. […]
# Kkay mice = assay: Long-term pharmacodynamic study on Kkay mice (Example 17); format: in vivo; details: s.c. 100 and 300 μg/kg; dulaglutide 600 μg/kg; FIGS. 9a-9b
# Protocol: Before the start of the experiment on the day, the mice were evaluated for baseline blood glucose at about 9:00 a.m. and weighed. […] The vehicle contained 14 mg/mL propylene glycol, 5.5 mg/mL phenol and 1.133 mg/mL disodium hydrogen phosphate, with a pH value of 7.4.
# (time 0) at back of the neck once every 2 days for 16 consecutive times, the blood glucose of the mice was evaluated 3 h, 6 h, 1 day and 2 days after the first administration, and HbA1c was detected in an EDTA anticoagulation tube 48 h after the last administration.
# human GLP-1 receptor = target: T1, human GLP-1 receptor (Homo sapiens, UniProt P43220); assay: GLP-1 receptor binding, displacement of 125I-GLP-1, low and high HSA; details: 2% HSA versus 0.005% HSA
# T1 construct: host or cells: cell membrane preparation
# T1 sequence (P43220 24-463): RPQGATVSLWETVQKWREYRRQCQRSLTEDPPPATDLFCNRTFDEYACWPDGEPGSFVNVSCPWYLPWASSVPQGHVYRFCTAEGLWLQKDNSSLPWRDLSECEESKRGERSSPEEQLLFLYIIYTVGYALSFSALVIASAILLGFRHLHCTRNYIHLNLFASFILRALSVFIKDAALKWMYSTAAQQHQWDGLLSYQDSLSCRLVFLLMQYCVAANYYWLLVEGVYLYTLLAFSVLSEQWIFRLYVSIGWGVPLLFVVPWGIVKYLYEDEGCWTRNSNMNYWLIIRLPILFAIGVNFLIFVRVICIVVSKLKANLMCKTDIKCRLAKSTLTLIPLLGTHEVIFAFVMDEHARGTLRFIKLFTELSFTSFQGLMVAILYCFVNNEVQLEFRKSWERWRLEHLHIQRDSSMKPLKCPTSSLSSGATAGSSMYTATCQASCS
# Protocol: For a receptor binding test in the presence of low-concentration HSA (0.005% (w/v)), 50 μL of assay buffer was added to each well of the assay plate. For a receptor binding test in the presence of high-concentration HSA (2% (w/v)), 50 μL of 8% (w/v) albumin stock solution was added to each well of the assay plate. […] In the presence of 0.005% HSA, all test compounds and the reference control were diluted to 2 μM with assay buffer, and then all samples were diluted in 4-fold serial gradient dilutions for a total of 10 concentration gradients. […] 25 μL of test compounds or reference control at different concentrations were added to the appropriate wells of the assay plate, respectively. Cell membrane protein aliquots were thawed and diluted to their working concentration (40 μg/mL), and 50 μL of the cell membrane-containing solution was added to each well of the assay plate. […] The assay plate was incubated at room temperature for 1 h. After the incubation, the reaction solution was collected on a GF/C filter plate using a cell collector, washed 6 times with a washing buffer, and dried in a drying oven at 50° C. for 1 h. 50 μL of scintillation solution was added and blocked, and the values were read using Microbeta2. IC50 values were calculated by the nonlinear regression analysis in the GraphPad Prism software and reported in nM. […]
Substance,"control of food intake and water intake compared to semaglutide (db/db mice [1]; db/db mice, FIGS. 7c-7d)","hypoglycemic effect on db/db mice compared to semaglutide (db/db mice [1]; same dose, FIGS. 7a-7b)",effective duration of action of hypoglycemic effect on db/db mice compared to semaglutide (db/db mice [2]),hypoglycemic effect on db/db mice compared to semaglutide (db/db mice [2]; FIGS. 2a-2b),hypoglycemic effect on Kkay mice compared to dulaglutide (Kkay mice),Ratio [(IC50/nM) high-concentration HSA]/[(IC50/nM) low-concentration HSA] (human GLP-1 receptor)
"N-ε^26-[2-(2-[2-(4-[19-carboxynonadecanoylamino]-4(S)-carboxybutanoylamino)ethoxy]ethoxy)acetyl][Gly8, Arg34]GLP-1-(7-37) Peptide [Compound 2]",its effect is superior to semaglutide,superior hypoglycemic effect,longer than that of semaglutide,superior hypoglycemic effect to semaglutide,significantly superior hypoglycemic effect on Kkay mice to dulaglutide,
semaglutide,,,,,,813
